Assay results from patent US8034940B2, “Modulators of glucocorticoid receptor, AP-1, and/or NF-κB activity and use thereof” (Bristol-Myers Squibb Company, priority 2006, dated 2011).

Test system: AP-1 induced transcriptional activity
Assay: Cellular Transrepressional Assay (AP-1 luciferase reporter, PMA-activated A549 cells)
Type: cell-based
Conditions: for AP-1 Max % inh (Cellular Transrepression Assay) / Emax: maximum inhibition; for Emax: A549, 7 h, read-out: AP-1 Max % inh (Cellular Transrepression Assay)
Procedure: Cellular Transrepressional Assay
To measure the ability of test molecules to inhibit AP-1 induced transcriptional activity we utilized an A549 cell which was stably transfected with a plasmid containing 7× AP-1 DNA binding sites (pAP-1-Luc plasmid, Stratagene Co. La Jolla, Calif.) followed by the gene for luciferase. Cells were activated with 10 ng/ml of […] (PMA) plus or minus test molecules for 7 hours. After 7 hours a luciferase reagent was added to measure luciferase enzymatic activity in the cell. After a 10 minute incubation of luciferase reagent with cells, luminescence was measured in a TopCount luminescence counter. Repression of AP-1 activity was calculated as the percentage decrease in the signal induced by PMA alone. Test molecules were analyzed in the concentration range from 0.1 nM to 40 μM. EC50s were determined by using standard curve fitting methods such as Excel fit (Microsoft Co.).

[1] = Homo sapiens, Cellular Transrepression Assay
[2] = Homo sapiens, A549, Cellular Transrepression Assay

Compound	EC50 (Cellular Transrepression Assay) [nM]	EC50 [2] [nM]	AP-1 Max % inh (Cellular Transrepression Assay) (Cellular Transrepression Assay) [%]	Emax [1] [%]
CC(O)c1ccc(-c2ccc3c(n2)Oc2ccccc2C3C(C)(C)C(=O)Nc2nncs2)cc1 (mixture of isomers) [Example 239]	12.4	–	44.85	–
CC(C)Oc1ccc(-c2ccc3c(n2)Oc2c(F)cccc2C3C(C)(C)C(=O)Nc2nncs2)cc1F (racemic) [Example 163]	16.8	–	49.60	–
CN(C)C(=O)c1ccc(-c2ccc3c(n2)Oc2ccccc2[C@@H]3C2(C(=O)Nc3nncs3)CCC2)cc1 (single isomer, unassigned) [Example 480]	–	27	–	44
O=C(CC1c2ccccc2Oc2ccccc21)Nc1nc(-c2ccc(F)c3ccccc23)cs1 [Example 2]	–	–	–	42.7
Cc1ccc(-c2csc(NC(=O)CC3c4ccccc4Oc4ccccc43)n2)c2ccccc12 [Example 3]	–	–	–	47.8
O=C(CC1c2ccccc2Oc2ccccc21)Nc1nc(-c2cccc3ccccc23)cs1 [Example 4]	–	–	–	56.5
CC(C)(C(=O)Nc1nc(-c2cccc3ccccc23)cs1)C1c2ccccc2Sc2ccccc21 [Example 6]	–	461	–	67.9
CC(C)(C(=O)Nc1nc(-c2ccc(F)c3ccccc23)cs1)C1c2ccccc2S(=O)(=O)c2ccccc21 [Example 11]	–	882	–	68.5
CC(C)(C(=O)Nc1nccs1)C1c2ccccc2-c2ccccc21 [Example 18]	–	542	–	37.6
CC(C)(C(=O)Nc1nc(-c2cccc3ccccc23)cs1)C1c2ccccc2-c2ccccc21 [Example 19]	–	–	–	52.7
Cc1ccc(-c2csc(NC(=O)C(C)(C)C3c4ccccc4-c4ccccc43)n2)c2ccccc12 [Example 20]	–	473	–	46.9
CC(C)(C(=O)Nc1nc(-c2ccc(F)c3ccccc23)cs1)C1c2ccccc2-c2ccccc21 [Example 21]	–	–	–	60.8
O=C(CC1c2ccccc2Sc2ccccc21)Nc1nc(-c2ccc(F)c3ccccc23)cs1 [Example 26]	–	–	–	26.9
Cc1ccc(-c2csc(NC(=O)CC3c4ccccc4Sc4ccccc43)n2)c2ccccc12 [Example 27]	–	–	–	15
O=C(CC1c2ccccc2Sc2ccccc21)Nc1nc(-c2cccc3ccccc23)cs1 [Example 28]	–	–	–	43.7
CC(C)(C(=O)Nc1nc(Cc2ccc(Br)cc2)cs1)C1c2ccccc2Oc2ccccc21 [Example 35]	–	80.6	–	72.3
CC(C)(C(=O)Nc1nc(-c2ccc(F)c3ccccc23)c[nH]1)C1c2ccccc2Oc2ccccc21 [Example 38]	–	–	–	70.4
CC(C)(C(=O)Nc1nc(-c2ccc(F)c3ccccc23)cs1)C1c2ccccc2Oc2ccc(C(F)(F)F)cc21 (centres unmarked) [Example 40]	–	461	–	47.8
CC(C)(C(=O)Nc1nc(C(=O)c2ccccc2)cs1)C1c2ccccc2Oc2ccccc21 [Example 44]	–	–	–	69.3
COc1ccc2c(c1)Oc1ccccc1C2C(C)(C)C(=O)Nc1nc(-c2cccc3ccccc23)cs1 (centres unmarked) [Example 52]	–	213	–	70.8
COc1ccc2c(c1)Oc1ccccc1[C@H]2C(C)(C)C(=O)Nc1nc(Cc2ccc(-c3cccnc3)cc2)cs1 [Example 55]	–	21.5	–	75.5
COc1ccc2c(c1)Oc1ccccc1[C@@H]2C(C)(C)C(=O)Nc1nc(Cc2ccc(-c3ccncc3)cc2)cs1 [Example 58]	–	3.71	–	70
CC(C)(C(=O)Nc1nc(-c2ccc(F)c3ccccc23)cs1)C1c2ccccc2Oc2ncccc21 (centres unmarked) [Example 63]	–	–	–	75.8
CC(C)(C(=O)Nc1nc(Cc2ccc(-c3ccncc3)cc2)cs1)C1c2ccccc2Oc2ncccc21 (centres unmarked) [Example 64]	–	19.9	–	79.3
CC(C)(C(=O)Nc1nc(-c2ccc(F)c3ccccc23)cs1)C1c2ccccc2Oc2nc(Cl)ccc21 (centres unmarked) [Example 73]	–	735	–	60.6

More lines, main results first:

EC50 (Cellular Transrepression Assay) [nM]	EC50 [2] [nM]	Compound	AP-1 Max % inh (Cellular Transrepression Assay) (Cellular Transrepression Assay) [%]	Emax [1] [%]
5.58	–	CN(C)C(=O)c1ccc(-c2ccc3c(n2)Oc2c(F)cccc2C3C(C)(C)C(=O)Nc2nncs2)cc1 (racemic) [Example 164]	57.26	–
25.6	–	CN(C)C(=O)c1ccc(-c2ccc3c(n2)Oc2c(F)cccc2C3C(C)(C)C(=O)Nc2nncs2)cc1F (racemic) [Example 165]	56.92	–
36.6	–	Cc1nnc(NC(=O)C(C)(C)C2c3ccc(-c4ccc(C(=O)N(C)C)c(F)c4)nc3Oc3c(F)cccc32)s1 (racemic) [Example 167]	57.94	–
–	579	CN(C)C(=O)c1ccc(-c2ccc3c(n2)Oc2ccccc2[C@H]3C2(C(=O)Nc3nncs3)CCC2)cc1 (single isomer, unassigned) [Example 481]	–	33.8
–	157	O=C(CC1c2ccccc2Oc2ccccc21)Nc1nc(Cc2ccc(-c3ccncc3)cc2)cs1 [Example 1]	–	69.3
–	58.2	CC(C)(C(=O)Nc1nc(Cc2ccc(-c3ccncc3)cc2)cs1)C1c2ccccc2Sc2ccccc21 [Example 5]	–	66
–	303	Cc1ccc(-c2csc(NC(=O)C(C)(C)C3c4ccccc4Sc4ccccc43)n2)c2ccccc12 [Example 7]	–	64.9
–	546	CC(C)(C(=O)Nc1nc(-c2ccc(F)c3ccccc23)cs1)C1c2ccccc2Sc2ccccc21 [Example 8]	–	69
–	16.8	CC(C)(C(=O)Nc1nc(Cc2ccc(-c3ccncc3)cc2)cs1)C1c2ccccc2S(=O)(=O)c2ccccc21 [Example 10]	–	86.5
–	461	CC(C)(C(=O)Nc1nc(-c2cccc3ccccc23)cs1)C1c2ccccc2S(=O)(=O)c2ccccc21 [Example 12]	–	67.9
–	566	Cc1ccc(-c2csc(NC(=O)C(C)(C)C3c4ccccc4S(=O)(=O)c4ccccc43)n2)c2ccccc12 [Example 13]	–	60.3
–	501	CC(C)(C(=O)Nc1nc(-c2cccc3ccccc23)cs1)C1c2ccccc2Cc2ccccc21 [Example 15]	–	65.9
–	303	Cc1ccc(-c2csc(NC(=O)C(C)(C)C3c4ccccc4Cc4ccccc43)n2)c2ccccc12 [Example 16]	–	59.9
–	335	CC(C)(C(=O)Nc1nc(-c2ccc(F)c3ccccc23)cs1)C1c2ccccc2Cc2ccccc21 [Example 17]	–	68
–	15.7	CC(C)(C(=O)Nc1nc(Cc2ccc(-c3ccncc3)cc2)cs1)C1c2ccccc2CCc2ccccc21 [Example 24]	–	78.8
–	139	COc1ccc(NC(=O)c2cccc(-c3csc(NC(=O)C(C)(C)C4c5ccccc5Oc5ccccc54)n3)c2)cc1Cl [Example 29]	–	66.4
–	338	CC(C)(C(=O)Nc1nc(-c2cccc3ccccc23)cs1)C1c2ccccc2Oc2ccccc21 [Example 30]	–	67.2

EC50 (Cellular Transrepression Assay) [nM]	EC50 [2] [nM]	Compound	AP-1 Max % inh (Cellular Transrepression Assay) (Cellular Transrepression Assay) [%]	Emax [1] [%]
–	179	Cc1ccc(-c2csc(NC(=O)C(C)(C)C3c4ccccc4Oc4ccccc43)n2)c2ccccc12 [Example 31]	–	69.4
–	302	CC(C)(C(=O)Nc1nc(-c2ccc(F)c3ccccc23)cs1)C1c2ccccc2Oc2ccccc21 [Example 32]	–	67.6
–	31.8	COc1ccc(Cc2csc(NC(=O)C(C)(C)C3c4ccccc4Oc4ccccc43)n2)cc1 [Example 33]	–	55.2
–	3.52	CC(C)(C(=O)Nc1nc(Cc2ccc(-c3ccncc3)cc2)cs1)C1c2ccccc2Oc2ccccc21 [Example 34]	–	71.8
–	5.82	CC(C)(C(=O)Nc1nc(Cc2ccc(-c3cn[nH]c3)cc2)cs1)C1c2ccccc2Oc2ccccc21 [Example 41]	–	73.8
–	3.7	Cn1cc(-c2ccc(Cc3csc(NC(=O)C(C)(C)C4c5ccccc5Oc5ccccc54)n3)cc2)cn1 [Example 42]	–	73.4
–	13.4	Cc1noc(C)c1-c1ccc(Cc2csc(NC(=O)C(C)(C)C3c4ccccc4Oc4ccccc43)n2)cc1 [Example 43]	–	71.9
–	102	COc1ccc2c(c1)Oc1ccccc1C2C(C)(C)C(=O)Nc1nc(-c2ccc(F)c3ccccc23)cs1 (centres unmarked) [Example 45]	–	71.5
–	90.2	COc1ccc2c(c1)Oc1ccccc1C2C(C)(C)C(=O)Nc1nc(-c2ccc(C)c3ccccc23)cs1 (centres unmarked) [Example 46]	–	67.6
–	40.3	COc1ccc(Cc2csc(NC(=O)C(C)(C)C3c4ccccc4Oc4cc(OC)ccc43)n2)cc1 (centres unmarked) [Example 49]	–	68.8
–	165	COc1ccc2c(c1)Oc1ccccc1C2C(C)(C)C(=O)Nc1nc(Cc2ccc(Br)cc2)cs1 (centres unmarked) [Example 50]	–	74.8
–	6.87	COc1ccc2c(c1)Oc1ccccc1C2C(C)(C)C(=O)Nc1nc(Cc2ccc(-c3ccncc3)cc2)cs1 (centres unmarked) [Example 51]	–	77.9
78.5	–	COc1ccc(Cc2csc(NC(=O)C(C)(C)C3c4ccccc4Oc4cc(OC)ccc43)n2)cc1 (centres unmarked) [Example 53]	72.00	–
–	13.1	COc1ccc2c(c1)Oc1ccccc1[C@H]2C(C)(C)C(=O)Nc1nc(Cc2ccc(-c3ccncc3)cc2)cs1 [Example 54]	–	71.4
–	11.5	COc1ccc(Cc2csc(NC(=O)C(C)(C)[C@H]3c4ccccc4Oc4cc(OC)ccc43)n2)cc1 [Example 57]	–	74.8
–	11.8	COc1ccc2c(c1)Oc1ccccc1[C@@H]2C(C)(C)C(=O)Nc1nc(Cc2ccc(-c3cccnc3)cc2)cs1 [Example 59]	–	58.4
–	345	CC(C)(C(=O)Nc1nncs1)C1c2ccccc2Oc2ncccc21 (centres unmarked) [Example 65]	–	32.2
